Values quoted from earlier work, collected in US20230321005A1, “PHYTONADIONE COMPOSITIONS” (CIPLA LIMITED, priority 2020, published 2023).

Assays:
[1] = forms multiple peroxide and epoxy impurities

Solubility in aqueous solvents: insoluble
Susceptibility to oxidative and photolytic degradation [1]: highly susceptible
SMILES: CC1=C(C/C=C(\C)CCC[C@H](C)CCC[C@H](C)CCCC(C)C)C(=O)c2ccccc2C1=O [Phytonadione, 2 - methyl - 3 - phytyl - 1, 4 - naphthoquinone]
